Results: patent US4382094A, “Reduced naphthalenes, their preparation and use” (Beecham Group Limited, priority 1980, dated 1983)

Test system: ear, irritant solution of 1% croton oil
Test: topical anti-inflammatory activity, croton oil rat ear model (Fregnan and Torsello)
Assay type: in vivo, Rats, Charles River Wistar Strain, female
Conditions: 6 hours
Experimental: Compounds were tested for anti-inflammatory activity in a topical model based on that described by Fregnan G. B. and Torsello, A. L. (1975), Current Therapeutic Research 17, No. 4, 375-381. In outline the method is as follows:
Rats, Charles River Wistar Strain, female, 10/group. Weight range 200-240 g.
Irritant solution applied consists of 1% croton oil in tetrahydrofuran. 0.05 ml is placed on each ear, compound being included in the irritant solution on one ear. 6 hours later the ears are removed by cutting along the hairline and weighed.
-ve controls--no irritant solution.
+ve controls--irritant solution on both ears.

[1] = 3.0 mg/ear on the other (treated) ear
[2] = Rattus norvegicus, 2 mg/ear, topical, compound in irritant solution, read-out: Treated Ear % inhibition
[3] = Rattus norvegicus, topical, compound in irritant solution, read-out: Treated Ear % inhibition

SMILES | inhibition in vivo at 2 mg/ear [2] | further results
CC12CCC(=O)C=C1CCC(=Cc1ccccc1)C2=O (stereo not drawn) [Compound 1, 2-Benzylidene-3,4,8,8a-tetrahydro-8a-methyl-1,6(2H,7H)-naphthalenedione] | – | Non-Treated Ear % inhibition [1]: -1%; Non-Treated Ear wt. [1]: 136.5 ± 5.80 mg; inhibition in vivo at 3 mg/ear (Rattus norvegicus, 3.0 mg/ear, topical, compound in irritant solution, read-out: Treated Ear % inhibition): 70%
CC12CCC(=O)C=C1CCC(=Cc1cccs1)C2=O (stereo not drawn) [Compound 2, 2-(2-Thienylmethylidene)-3,4,8,8a-tetrahydro-8a-methyl-1,6(2H,7H)-naphthalenedione] | 71% | –
CC12CCC(=O)C=C1CCC(=Cc1ccc(Cl)cc1)C2=O (stereo not drawn) [Compound 3, 2-(4-Chlorobenzylidene)-3,4,8,8a-tetrahydro-8a-methyl-1,6-(2H,7H)-naphthalenedione] | 63% | –
CC12CCC(=O)C=C1CCC(=Cc1ccco1)C2=O (stereo not drawn) [Compound 4, 2-(2-Furylmethylidene)-3,4,8,8a-tetrahydro-8a-methyl-1,6(2H,7H)-naphthalenedione] | 44% | –
CC12CCC(=O)C=C1CCC(=Cc1cccc(Cl)c1)C2=O (stereo not drawn) [Compound 5, 2-(3-Chlorobenzylidene)-3,4,8,8a-tetrahydro-8a-methyl-1,6-(2H,7H)-naphthalenedione] | 41% | –
CC12CCC(=O)C=C1CCC(=Cc1ccc(C#N)cc1)C2=O (stereo not drawn) [Compound 6, 4-[(3,4,8,8a-Tetrahydro-8a-methyl-1,6-dioxo(2H,7H)-naphthalen-2-yl)methylidene]benzonitrile] | 53% | Treated Ear wt. (2 mg/ear, topical, * p<0.05 vs control (Students t test)): 87.2 mg
CC12CCC(=O)C=C1CCC(=Cc1ccc([N+](=O)[O-])cc1)C2=O (stereo not drawn) [Compound 7, 4-[(3,4,8,8a-Tetrahydro-8a-methyl-1,6-dioxo(2H,7H)-naphthalen-2-yl)methylidene]nitrobenzene] | 81% | –
CN(C)c1ccc(C=C2CCC3=CC(=O)CCC3(C)C2=O)cc1 (stereo not drawn) [Compound 8, 2-(4-Dimethylaminobenzylidene)-3,4,8,8a-tetrahydro-8a-methyl-1,6(2H,7H)-naphthalenedione] | – | inhibition in vivo at 1.5 mg/ear [3]: 99%
CC12CCC(=O)C=C1CCC(=Cc1ccc3c(c1)OCO3)C2=O (stereo not drawn) [Compound 9, 2-(3,4-Methylenedioxybenzylidene)-3,4,8,8,a-tetrahydro-8a-methyl-1,6(2H,7H)-naphthalenedione] | 100% | –
CC12CCC(=O)C=C1CCC(=Cc1cccc(O)c1)C2=O (stereo not drawn) [Compound 10, 2-(3-Hydroxybenzylidene)3,4,8,8a-tetrahydro-8a-methyl-1,6(2H,7H)-naphthalenedione] | 98% | –
COc1ccc(C=C2CCC3=CC(=O)CCC3(C)C2=O)cc1 (stereo not drawn) [Compound 11, 2-(4-Methoxybenzylidene)-3,4,8,8a-tetrahydro-8a-methyl-1,6(2H,7H)-naphthalenedione] | 95% | –
CC12CCC(=O)C=C1CCC(=Cc1ccccc1)C2O (stereo not drawn) [Compound 14, 6-Benzylidene-4,4a,5,6,7,8-hexahydro-5-hydroxy-4a-methyl-2(3H)-naphthalenon] | – | inhibition in vivo at 1.5 mg/ear [3]: 107%
